Measured values: patent publication US7816497B2, “Compositions and methods for inhibiting drusen complement components C3a and C5a for the treatment of age-related macular degeneration” (University of Kentucky, priority 2002, dated 2010)

B1: C5a: activated complement component 5 (human), applied to RPE cells or injected intravitreously (protein, UniProt P01031 678-751, looked up)
C5a anaphylatoxin: TLQKKIEEIAAKYKHSVVKKCCYDGACVNNDETCEQRAARISLGPRCIKAFTECCVVASQLRANISHKDMQLGR
modifications: C5a anaphylatoxin

What was measured:
[1] = test system: human RPE cells; experiment: VEGF secretion by human RPE cells (VEGF ELISA); type: cell-based; conditions: 50 ng/ml; confluent and subconfluent conditions; compared to PBS
Protocol: Human RPE cells (gift of David R. Hinton, University of Southern California) were cultured in Dulbecco's modified essential medium (Invitrogen) containing 10% fetal bovine serum, penicillin G (100 U/ml), streptomycin sulfate (0.1 mg/ml) (all from Sigma-Aldrich) at 37° C. under 10% CO2 and 90% room air. Cells were used for experiments upon attaining 80% or 100% confluence.
(§1) The RPE/choroid complex was dissected from the mouse eye and sonicated in lysis buffer (20 mM imidazole HCl, 10 mM KCl, 1 mM MgCl2, 10 mM EGTA, 1% Triton X-100, 10 mM NaF, 1 mM Na molybdate, 1 mM EDTA with protease inhibitor (Sigma-Aldrich)) on ice for 45 sec. VEGF protein levels (pg/ml) in the RPE cell culture supernatant or the RPE/choroid lysate were determined by ELISA (R&D Systems) and normalized to total protein (μg/ml) (Bio-Rad).
(§2) VEGF protein data are represented as the mean±s.e.m. of at least 3 independent experiments and compared using a two-tailed Student's t-test. The null hypothesis was rejected at P<0.05.

[2] = test system: VEGF; experiment: VEGF levels in mouse eye tissue after intravitreous injection (VEGF ELISA); type: in vivo; conditions: wild-type mice, 4 hours after injection, dose-dependent
Protocol: as §1, §2

[3] = test system: macrophages or neutrophils in the choroid; experiment: Leukocyte numbers in the choroid after intravitreous injection (flow cytometry); type: in vivo, mice; conditions: 4 hours after intravitreous injection; data not shown
Protocol: Single cell suspensions isolated from mouse RPE/choroids via collagenase D treatment (20 U/mL; Roche Diagnostics) were incubated in Fc block (0.5 mg/mL; BD Pharmingen) for 15 min on ice, stained with Cy5-rat antibody to mouse F4/80 (1:30; Serotec), FITC-hamster antibody to mouse CD11c (1:100; Serotec), or PE-rat antibody to mouse Gr-1 (1:200; eBioscience), and subjected to FACS analysis (FACScalibur, BD Biosciences). Macrophages and neutrophils were defined as F4/80+CD11c- and Gr-1+F4/80-cells, respectively.

[4] = test system: laser-induced CNV; experiment: Laser-induced CNV in wild-type mice, intravitreous injection of complement blockers; type: in vivo; conditions: intravitreous injection immediately after laser injury, compared with control peptide or isotype control antibodies
Protocol: Laser photocoagulation (532 nm, 200 mW, 100 ms, 75 μm) (OcuLight GL, Iridex) was performed (volume studies: 3/eye; protein analyses/flow cytometry: 12/eye) on both eyes of each animal to induce CNV as previously described in Sakurai, E., Taguchi, H., Anand, A., Ambati, B. K., Gragoudas, E. S., Miller, J. W., Adamis, A. P. & Ambati, J. (2003) Invest Ophthalmol Vis Sci 44, 2743-9; and Sakurai, E., Anand, A., Ambati, B. K., van Rooijen, N. & Ambati, J. (2003) Invest Ophthalmol Vis Sci 44, 3578-85. CNV volumes were measured by scanning laser confocal microscope (TCS SP, Leica) as previously reported (Id.) with 0.5% FITC-Griffonia simplicifolia Isolectin B4 (Vector Laboratories) or 0.5% FITC-rat antibody against mouse CD31 (BD Pharmingen). Volumes obtained by lectin and CD31 staining were highly correlated (r^2=0.95). […]
Because the probability of each laser lesion developing CNV is influenced by the group to which it belongs, the mouse, the eye, and the laser spot, the mean lesion volumes were compared using a linear mixed model with a split plot repeated measures design, as previously described. […] Statistical significance was determined at the 0.05 level. […]

| Molecule | human RPE cell secretion of VEGF [1] | VEGF levels in the RPE/choroid [2] | number of macrophages or neutrophils in the choroid [3] | CNV (volume of laser-induced CNV) [4] |
| --- | --- | --- | --- | --- |
| C3a: activated complement component 3 (human), applied to RPE cells or injected intravitreously | upregulated | increase | no increase |  |
| N=C(N)NCCC[C@H](NC(=O)COCC(c1ccccc1)c1ccccc1)C(=O)O [C3aRA, N^2-[(2,2-diphenylethoxy)acetyl]-arginine] |  |  |  | reduced |
| AcF[OPdChaWR] [C5aRA] |  |  |  | reduced |
| B1 | upregulated | increase | no increase |  |
